Test results from patent US5916872A, “Cyclic peptides having broad spectrum antimicrobial activity” (IntraBiotics Pharmaceuticals, Inc., priority 1996, dated 1999).
Values after ≈ are worked out from the molar mass of the structure shown. Positions of bridges follow the written chain, without caps; N, C: chain ends. Residues, ends and D or L forms follow the SMILES beside them.

Assays:
Assay type in all cases: cell-based
[1] = tested on: MRSA (methicillin resistant Staphylococcus aureus); assay: Kinetic bactericidal assay; conditions: 2 μg/mL peptide, from an initial value of 3.3 × 10^5 CFUs
Source text: (§1) Microorganisms: Escherichia coli ML-35p and vancomycin-resistant Enterococcus faecium (VRE) were obtained from Dr. Robert Lehrer (UCLA, see also, Lehrer et al., 1988, J. Immunol. Methods 108:153) and Dr. Gary Schoolnik (Stanford), respectively. Pseudomonas aeruginosa (ATCC 9027), Candida albicans (ATCC 1023), and methicillin resistant Staphylococcus aureus (ATCC 33591) were obtained from the American Type Culture Collection, Rockville, Md.
8.4 Kinetic Bactericidal Assay
The following assay is used to determine the rate at which a cyclic peptide kills a target microorganism, as well as to determine if a cyclic peptide is bactericidal or bacteriostatic.
1. Dispense 200 μL of log-phase cells in LTM (4×10^5 CFUs/mL) into each well of a 96-well microtiter plate solution.
2. At time T=0 minutes, add 22 μL of 1280 μg/mL peptide to well A1 and mix by triturating 3 times.
3. Wait 30 seconds and add 22 μL of a second concentration of peptide the to the next well (A2) and mix by triturating 3 times.
4. Repeat the process, staggering each peptide addition by 30 seconds, until all concentrations of peptide have been added. Typically, 4-fold serial dilutions of stock peptide (i.e., 1280, 320, 80, 20 and 5 μg/mL peptide diluted 1:10 into each well) produces good comparative kill curves. Add 22 μL of 0.01% acetic acid to one well as a control.
5. At time T=15 minutes, mix well A1 by triturating 3 times and transfer 20 μL to an empty sterile petri dish (100 mm×15 mm).
6. Quickly add 20 mL of tempered (50° C.) TSA and gently swirl plate to mix.
7. Repeat steps 5-6 until all peptide concentrations have been plated.
8. For the control well, dilute the sample 1:100 with LTM and plate 50 μL of the dilution to obtain an accurate determinations of CFUs.
9. After the agar has solidified, invert the plates and incubate at 37° C. (bacteria) 30° C. (yeast) for 18-24 hours.
10. Repeat steps 5-9 for all peptide concentrations and control samples at times T=30, 60, 120, and 240 minutes.
11. Count the number of CFUs per plate and estimate the reduction in CFUs for each peptide concentration. In order to assess an effect using this assay, the peptide must reduce the CFUs by at least one log (i.e., at least 800 CFUs per plate). Although such numbers are higher than recommended for accuracy (30-300 CFUs/plate), log-order changes in recoverable CFUs indicate significant bacteriocidal efficacy.
12. To obtain comparative kill curves, plot the log of fractional survival versus peptide concentration.

[2] = tested on: MRSA (methicillin resistant Staphylococcus aureus); assay: Modified NCCLS minimum inhibitory concentration (MIC) assay; conditions: Table 4
Source text: as §1
(§2) 8.3 Modified NCCLS Minimum Inhibitory Concentration (MIC) Assay
(§3) The National Committee for Clinical Standards (NCCLS) requires that test compounds be prepared as stock solutions in Meuller-Hinton Broth ("MHB") at 512 μg/mL. The stock solutions are serially diluted (two-fold) in medium and each serial dilution added 1:1 to medium containing 1×10^6 CFU/mL bacteria (National Committee on Clinical Laboratory Standards, December 1994, "Performance Standards for Antimicrobial Susceptibility Testing," NCCLS Document M100-S5 Vol. 14, No. 16; Methods for Dilution Antimicrobial Susceptibility Test for Bacteria that Grow Aerobically, 3d Ed., Approved Standard M7-A3, National Committee for Clinical Standards, Villanova, Pa.).
(§4) Thus, following the NCCLS protocol would result in serial two-fold dilutions containing less peptide than calculated, yielding erroneously high MIC values.
(§5) To overcome this problem, the following modified NCCLS assay is the preferred method for determining MICs of the cyclic peptides of the invention.
(§6) Preparation of MIC assay plates:
(§7) 1. Prepare a fresh overnight culture of test organism in Meuller-Hinton broth (MHB; Becton-Dickinson, Cockysville, Md., BB2 #11443).
(§8) 2. Dilute the culture to approximately 4×10^5 CFUs/mL with fresh MHB and dispense 100 μL aliquots into each well of a sterile 96-well microtiter plate.
(§9) 3. From the peptide stock solution, prepare serial two-fold dilutions (from 1280 μg/mL to 0.625 μg/mL) using acetic acid (0.01%) as a diluent, or, for peptide concentrations lower than 50 μg/mL, sodium acetate (10 mM, pH 5) containing Human Serum Albumin (HSA; 0.1% w/v) as a diluent.
(§10) 4. Dispense triplicate aliquots (11 μL) of each serial dilution into the wells of the microtiter plate.
(§11) 5. Incubate the plate for 16-18 hours, without aeration, at 37° C. (bacteria) or 30° C. (yeast).
(§12) 6. Examine the plates and evaluate each well for turbidity (cell growth). Often, MRSA will settle out and form a pellet at the bottom of the well. MRSA can be evaluated by placing the microtiter plate on a stand and examining the bottom of the well using a tilted mirror.
(§13) 7. The minimum inhibitory concentration (MIC) is defined as the lowest peptide concentration that inhibits all visible growth. If the MIC values for each of the triplicate samples differ, the MIC is obtained by averaging the results of the three samples. […]

Pseudomonas aeruginosa = assay: as above; conditions: Table 4; Psa is Pseudomonas aeruginosa
Source text: as §1, §2, §3, §4, §5, §6, §7, §8, §9, §10, §11, §12, §13

| Molecule | MRSA Kill Kinetics 15 min [1] | MRSA Kill Kinetics 120 min [1] | MIC Values MRSA [2] | MIC Values Psa (Pseudomonas aeruginosa) |
| --- | --- | --- | --- | --- |
| CC(C)C[C@@H]1NC(=O)[C@H](CCCNC(=N)N)NC(=O)CNC(=O)CNC(=O)[C@H](CCCNC(=N)N)NC(=O)[C@H](CCCNC(=N)N)NC(=O)CNC(=O)[C@H](C(C)C)NC(=O)[C@@H]2CSSC[C@H](NC1=O)C(=O)N[C@@H](Cc1ccc(O)cc1)C(=O)N[C@H]1CSSC[C@H](NC(=O)[C@H](Cc3ccccc3)NC(=O)[C@H](CCCNC(=N)N)NC(=O)[C@H](CCCNC(=N)N)NC(=O)[C@H](CCCNC(=N)N)NC1=O)C(=O)N[C@@H](C(C)C)C(=O)N2 [cyclo(CYCRRRFCVCVGRRGGRL)] (cyclo(GGRLCYCRRRFCVCVGRR); disulfide 5-14, 7-12) | 1.2 log reduction | 1.17 log reduction | 5.33 µg/mL (≈ 2.49 µM) | 8 µg/mL (≈ 3.74 µM) |
| CC(C)C[C@@H]1NC(=O)[C@H](CCCNC(=N)N)NC(=O)[C@H](C(C)C)NC(=O)[C@@H]2CSSC[C@H](NC1=O)C(=O)N[C@@H](Cc1ccc(O)cc1)C(=O)N[C@H]1CSSC[C@H](NC(=O)[C@H](Cc3ccccc3)NC(=O)[C@H](CCCNC(=N)N)NC(=O)[C@H](CCCNC(=N)N)NC(=O)[C@H](CCCNC(=N)N)NC1=O)C(=O)N[C@@H](C(C)C)C(=O)N2 [cyclo(CYCRRRFCVCVRL)] (cyclo(CRRRFCVCVRLCY); disulfide 1-6, 8-12) |  |  | 16 µg/mL (≈ 9.67 µM) | 2.67 µg/mL (≈ 1.61 µM) |
| CC(C)C[C@@H]1NC(=O)[C@H](Cc2c[nH]c3ccccc23)NC(=O)[C@H](C(C)C)NC(=O)[C@@H]2CSSC[C@H](NC1=O)C(=O)N[C@@H](Cc1ccc(O)cc1)C(=O)N[C@H]1CSSC[C@H](NC(=O)[C@H](Cc3ccccc3)NC(=O)[C@H](CCCNC(=N)N)NC(=O)[C@H](CCCNC(=N)N)NC(=O)[C@H](CCCNC(=N)N)NC1=O)C(=O)N[C@@H](C(C)C)C(=O)N2 [cyclo(CYCRRRFCVCVWL)] (cyclo(CRRRFCVCVWLCY); disulfide 1-6, 8-12) | 2.65 log reduction | 2.18 log reduction | 4 µg/mL (≈ 2.37 µM) | > 32 µg/mL |
| CC(C)[C@@H]1NC(=O)[C@@H]2CSSC[C@H](NC(=O)[C@H](Cc3ccc(O)cc3)NC(=O)[C@H](Cc3c[nH]c4ccccc34)NC1=O)C(=O)N[C@@H](Cc1ccc(O)cc1)C(=O)N[C@H]1CSSC[C@H](NC(=O)[C@H](Cc3ccccc3)NC(=O)[C@H](CCCNC(=N)N)NC(=O)[C@H](CCCNC(=N)N)NC(=O)[C@H](CCCNC(=N)N)NC1=O)C(=O)N[C@@H](C(C)C)C(=O)N2 [cyco(CYCRRRFCVCVWY), cyclo(CYCRRRFCVCVWY)] (cyclo(CRRRFCVCVWYCY); disulfide 1-6, 8-12) |  |  | 8 µg/mL (≈ 4.61 µM) | 32 µg/mL (≈ 18.4 µM) |
| RGGRLCYCRRRFCVCVGR |  |  | 4 µg/mL | 0.5 µg/mL |
| RLCYCRRRFCVCV |  |  | 10.7 µg/mL | 2 µg/mL |
| RLCYCRRRFCVCVV [RLCYCRRRFCVCVV.dagger.] |  |  | 2 µg/mL | 4 µg/mL |
| WLCYCRRRFCVCV |  |  | 32 µg/mL | 13 µg/mL |
| WLCYCRRRFCVCV [WLCYCRRRFCVCV.dagger.] | 2.12 log reduction | 2.89 log reduction | 3.33 µg/mL | > 32 µg/mL |
| WLCYCRRRFCVCVGR | < 0.46 log reduction | < 0.46 log reduction | 32 µg/mL | 32 µg/mL |
| WLCYCRRRFCVCVGR [WLCYCRRRFCVCVGR.dagger.] | 1.79 log reduction | 2.26 log reduction |  |  |
| WYCYCRRRFCVCV |  |  | 43 µg/mL | 32 µg/mL |
